Test results taken from patent US6620953B1, “Method for producing monoaryloxy-ansa-metallocenes” (Bassell Polyolefine GmbH, priority 1998, dated 2003).

What was measured:
[1] = Solubility comparison in toluene at room temperature; assay type: physicochemical; details: 50 mg in toluene at room temperature
[2] = Propylene polymerization with supported metallocene/MAO/SiO2 catalyst; details: metallocene 0.047 mmol in 30% MAO/toluene (Al/Zr=215) on SiO2; liquid propylene, 60° C., one hour
Experimental: (§1) 35.1 mg (0.047 mmol) of (3) were stirred in 2.1 ml of 30% strength MAO solution in toluene (Al/Zr=215) for 60 minutes at room temperature. 2 g of SiO2 (Grace XPO2107, pretreated at 140° C., 10 mbar, 10 hours) were subsequently added and the mixture was stirred for another 10 minutes. The solvent was removed in an oil pump vacuum.
A dry 2 l reactor was flushed firstly with nitrogen and subsequently propylene and charged with 1.5 l of liquid propylene. 2 ml of TEA (20% strength in Varsol) were added and the mixture was stirred for 15 minutes. The catalyst system prepared above (0.886 g) was then resuspended in 20 ml of heptane and injected into reactor and rinsed in using 15 ml of heptane. The reaction mixture was heated to the polymerization temperature of 60° C. and polymerization was carried out for one hour. The polymerization was stopped by venting the remaining propylene. The polymer was dried in a vacuum drying oven. This gave 470 g of polypropylene powder. […] The catalyst activity was 0.53 kg of PP/g of catalyst x h.
as §1, with “27.1” for “35.1”, “dimethylsilanediylbis(2-methyl-4,5-benzoindenyl)zirconium dichloride” for “(3)”, “The solvent was removed in an oil pump vacuum.” left out

| solubility [1] | SMILES | catalyst activity [2] |
| --- | --- | --- |
| about 0.36 mmol/l | CC1=Cc2c(ccc3ccccc23)[C]12[Si](C)(C)[C]1(C(C)=Cc3c1ccc1ccccc31)[Zr]2([Cl])[Cl] (stereo not drawn) [Rac-Dimethylsilanediylbis(2-methyl-4,5-benzoindenyl)zirconium Dichloride] | 0.46 kg of PP/g of catalyst x h |
| > 13 mM | CC1=Cc2c(ccc3ccccc23)[C]12[Si](C)(C)[C]1(C(C)=Cc3c1ccc1ccccc31)[Zr]2([Cl])[O]c1ccc(C(C)(C)C)cc1C(C)(C)C (stereo not drawn) [compound 3, Pseudo-rac-Dimethylsilanediylbis(2-methyl-4,5-benzo-indenyl)zirconium Monochloride Mono(2,4-di-tert-butylphenoxide)] | 0.53 kg of PP/g of catalyst x h |
| > 15 mM | CC1=Cc2ccccc2[C]12[Si](C)(C)[C]1(C(C)=Cc3ccccc31)[Zr]2([Cl])[O]c1ccc(C(C)(C)C)cc1C(C)(C)C (stereo not drawn) [compound 4, Pseudo-rac-Dimethylsilanediylbis(2-methylindenyl)-zirconium Monochloride Mono(2,4-di-tert-butylphenoxide)] |  |

| SMILES | solubility [1] | catalyst activity [2] |
| --- | --- | --- |
| Cc1cc2ccccc2[c-]1[Si](C)(C)[c-]1c(C)cc2ccccc21.[Cl-].[Cl-].[Zr+4] (racemic) [Rac-Dimethylsilanediylbis(2-methylindenyl)-zirconium Dichloride] | about 2.1 mmol/l |  |
